Test results as given in US20040138199A1, “Benzoxazines and derivatives thereof as therapeutic agents” (priority 2002, published 2004).

Target: T1, p101/p110γ protein (PI3Kγ) (Homo sapiens, UniProt P48736)
T1 construct: HA; made in house; host or cells: Spodoptera frugiperda (Sf9) cells, baculovirus coinfection
Test: PI3Kγ In Vitro Kinase Assay
Assay type: biochemical
Details: purified recombinant p101/p110γ with G protein β1/γ2 subunits; 20 μM ATP, 25 μM PIP2; 20 minutes at room temperature; radioactive PIP3 readout
Method: Spodtera frugiperda cells, grown in ESF921 media, were coinfected with baculovirus expressing a glu-tagged […] and baculovirus expressing an HA-tagged p110γ, at a 3:1 ratio of p110 baculovirus to p110γ baculovirus. Sf9 cells were grown to 1×10^7 total cells/mL in 10L bioreactors and harvested 48-72 hours post infection. Samples of infected cells were then tested for expression of p101/p110γ PI3 kinase by immunoprecipitation and Western Blot analysis methods (see below).
To purify PI3Kγ, 4 volumes of room temperature hypotonic lysis buffer (1 mM MgCl2, 1 mM DTT, 5 mM EGTA, 1 mM Pefabloc, 0.5 μM aprotinin, […], 2 μM pepstatin, 5 μM E64, pH 8) per gram of cell paste, was poured onto frozen cell pellets with stirring, then lysed in a nitrogen “bomb” at 400 psi (599HC T316, Parr Instrument Co, Moline, Ill.). NaCl was added to 150 mM, and sodium cholate was added to 1% and mixed for another 45 minutes. The lysates were clarified by centrifugation for 25 minutes at 14,000 rpm. The lysates were then loaded over anti-glu-linked Protein-G Sepaharose beads (Covance Research Products, Richmond, Calif.) using 20 mL resin/50 g cell paste. The column was washed with 15 volumes of wash buffer (1 mM DTT, 0.2 mM EGTA, 1 mM Pefabloc, 0.5 μM aprotinin, 5 μM leupeptin, 2 μM pepstatin, 5 μM E64, 150 mM NaCl, 1% sodium cholate, pH 8). PI3Kγ was eluted with 6 column volumes of wash buffer that contain 100 μg/mL of a peptide that competes for binding of the glu tag. The column fractions with the eluted protein (determined by taking OD280 readings) were collected and dialyzed in 0.2 mM EGTA, 1 mM DTT, 1 mM Pefabloc, 5 μM leupeptin, 0.5% sodium cholate, 150 mM NaCl, and 50% glycerol, pH 8. The fractions were stored at −80° C. until further use.
Spodtera frugiperda cells were coinfected with baculovirus expressing a glu-tagged G protein β1 and baculovirus expressing a […] at a 1:1 ratio of glu-tagged G protein β1 baculovirus to G protein β2 baculovirus. Sf9 cells are grown in 10 L bioreactors and harvested 48-72 hours post infection. Samples of infected cells were tested for G protein β1/β2 expression by Western Blot analysis, as described below. Cell lysates were homogenized and loaded onto a column of glu-tagged beads as in Biological Example 1 and competed off the column with a glu peptide as described in Biological Example 1.
The inhibitory properties of the compounds in Table 1 were assayed in an in vitro PI3K assay. In a 96-well polypropylene plate, each well was spotted with 2 μL of 50 times the desired final concentration of compound in DMSO. Purified recombinant p101/p110γ protein (0.03 μg; ˜2.7 nM) and G protein β1/γ2 subunits (0.09 μg; −57.7 nM) for each reaction was combined in the assay buffer (30 mM HEPES, 100 mM NaCl, 1 mM EGTA, and 1 mM DTT). ATP and [γ-^32P-ATP] (0.09 μCi) were added to this mixture so that the final ATP concentration in the reaction was 20 μM. Lipid micelles were formed by sonicating phosphatidylinositol-4,5-diphosphate (PIP2), phosphatidylethanolamine (PE), and Na-cholate in the assay buffer for 10 minutes, adding MgCL2 and incubating on ice for 20 minutes, for final concentrations of 25 μM PIP2, 300 μM PE, 0.02% Na-cholate, and 10 mM MgCl2 in the reaction. The reactions were started by adding equal volumes lipid and enzyme mixture in a total volume of 50 μL, allowed to run for 20 minutes at room temperature, and stopped with 100 μL 75 mM H3PO4. The lipid product was transferred to a glass fiber filter plate and washed with 75 mM H3PO4 several times. The presence of radioactive lipid product (PIP3) was measured by adding Wallac Optiphase mix to each well and counting in a Wallac 1450 Trilux plate reader (PerkinElmer Life Sciences Inc., Boston, Mass. 02118). The IC50 for each compound tested is reported in μM in Table 1: […]

T1 sequence (P48736 whole entry, species assumed): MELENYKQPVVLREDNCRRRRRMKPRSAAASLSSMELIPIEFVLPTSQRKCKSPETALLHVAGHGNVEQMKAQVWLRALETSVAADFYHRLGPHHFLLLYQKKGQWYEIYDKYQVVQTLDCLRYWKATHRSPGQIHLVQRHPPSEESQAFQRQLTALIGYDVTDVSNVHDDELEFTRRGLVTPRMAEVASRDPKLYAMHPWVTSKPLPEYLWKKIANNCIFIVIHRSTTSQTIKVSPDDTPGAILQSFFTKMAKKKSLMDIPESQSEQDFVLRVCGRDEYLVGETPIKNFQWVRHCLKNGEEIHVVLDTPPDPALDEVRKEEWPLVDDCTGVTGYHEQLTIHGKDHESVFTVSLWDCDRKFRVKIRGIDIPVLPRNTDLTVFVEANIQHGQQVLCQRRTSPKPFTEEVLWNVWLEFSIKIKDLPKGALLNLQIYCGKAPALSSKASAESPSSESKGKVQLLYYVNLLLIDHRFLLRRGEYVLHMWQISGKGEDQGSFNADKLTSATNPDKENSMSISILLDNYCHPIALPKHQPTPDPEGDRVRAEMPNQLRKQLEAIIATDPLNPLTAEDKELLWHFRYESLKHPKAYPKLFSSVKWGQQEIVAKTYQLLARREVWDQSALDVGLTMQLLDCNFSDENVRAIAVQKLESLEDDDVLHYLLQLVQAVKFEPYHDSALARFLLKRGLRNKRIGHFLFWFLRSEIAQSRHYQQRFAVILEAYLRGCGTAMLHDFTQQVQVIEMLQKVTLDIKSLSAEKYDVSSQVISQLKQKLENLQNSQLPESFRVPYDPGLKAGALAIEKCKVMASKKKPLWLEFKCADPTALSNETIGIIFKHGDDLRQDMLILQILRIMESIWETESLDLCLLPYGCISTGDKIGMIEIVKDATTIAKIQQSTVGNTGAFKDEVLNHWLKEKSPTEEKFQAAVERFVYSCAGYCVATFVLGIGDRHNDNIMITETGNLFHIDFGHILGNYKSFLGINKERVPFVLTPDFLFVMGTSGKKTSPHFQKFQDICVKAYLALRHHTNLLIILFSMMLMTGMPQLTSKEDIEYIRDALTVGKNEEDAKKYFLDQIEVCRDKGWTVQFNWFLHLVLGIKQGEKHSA
T1 sequence (Q8WYR1 whole entry partner, species assumed): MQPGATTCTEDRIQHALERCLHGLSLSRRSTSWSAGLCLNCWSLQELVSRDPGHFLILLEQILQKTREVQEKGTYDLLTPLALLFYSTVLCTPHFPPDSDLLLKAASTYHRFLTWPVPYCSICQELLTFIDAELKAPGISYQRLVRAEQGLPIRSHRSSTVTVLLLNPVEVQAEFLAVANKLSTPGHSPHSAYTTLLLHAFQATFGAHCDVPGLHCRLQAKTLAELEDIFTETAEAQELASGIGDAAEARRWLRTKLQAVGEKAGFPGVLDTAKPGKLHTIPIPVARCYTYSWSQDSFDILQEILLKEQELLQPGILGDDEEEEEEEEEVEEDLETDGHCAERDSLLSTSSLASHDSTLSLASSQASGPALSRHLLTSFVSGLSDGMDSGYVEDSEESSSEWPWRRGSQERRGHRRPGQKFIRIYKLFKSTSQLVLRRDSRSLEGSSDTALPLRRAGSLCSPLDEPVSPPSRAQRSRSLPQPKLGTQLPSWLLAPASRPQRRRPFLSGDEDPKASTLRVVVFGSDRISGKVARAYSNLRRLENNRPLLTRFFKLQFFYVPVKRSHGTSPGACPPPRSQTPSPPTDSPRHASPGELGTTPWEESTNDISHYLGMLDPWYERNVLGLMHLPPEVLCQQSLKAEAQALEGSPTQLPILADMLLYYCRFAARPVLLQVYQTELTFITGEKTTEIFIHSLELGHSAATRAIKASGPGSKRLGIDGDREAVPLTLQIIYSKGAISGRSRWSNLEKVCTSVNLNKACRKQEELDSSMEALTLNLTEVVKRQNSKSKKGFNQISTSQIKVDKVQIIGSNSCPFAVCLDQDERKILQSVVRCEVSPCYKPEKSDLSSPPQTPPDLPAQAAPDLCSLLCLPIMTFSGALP

Structure (SMILES) | IC50 [nM]
COC(=O)CCCCCCC(=O)N1CCOc2ccc(C=C3SC(=S)NC3=O)cc21 [Example 44, 8-Oxo-8-[6-(4-oxo-2-thioxo-thiazolidin-5-ylidenemethyl)-2,3-dihydro-1,4-benzoxazin-4-yl]-octanoic acid methyl ester] | 18
O=C1NC(=S)SC1=Cc1ccc2c(c1)N(C(=O)c1cc(C(F)(F)F)cc(C(F)(F)F)c1)CCO2 [Example 45, 5-[4-(3,5-Bis-trifluoromethyl-benzoyl)-3,4-dihydro-2H-1,4-benzoxazin-6-ylmethylene]-2-thioxo-thiazolidin-4-one] | 760
O=C1NC(=S)SC1=Cc1ccc2c(c1)N(C(=O)c1cc(F)cc(F)c1)CCO2 [Example 46, 5-[4-(3,5-Difluoro-benzoyl)-3,4-dihydro-2H-1,4-benzoxazin-6-ylmethylene]-2-thioxo-thiazolidin-4-one] | 372
O=C1NC(=S)SC1=Cc1ccc2c(c1)N(C(=O)COc1ccc(Cl)cc1)CCO2 [Example 47, 5-{4-[2-(4-Chloro-phenoxy)-acetyl]-3,4-dihydro-2H-1,4-benzoxazin-6-ylmethylene}-2-thioxo-thiazolidin-4-one] | 44
O=C1NC(=S)SC1=Cc1ccc2c(c1)N(C(=O)c1ccc3c(c1)OC(F)(F)O3)CCO2 [Example 48, 5-[4-(2,2-Difluoro-1,3-benzodioxole-5-carbonyl)-3,4-dihydro-2H-1,4-benzoxazin-6-ylmethylene]-2-thioxo-thiazolidin-4-one] | 715
O=C1NC(=S)SC1=Cc1ccc2c(c1)N(C(=O)c1ccno1)CCO2 [Example 49, 5-[4-(Isoxazole-5-carbonyl)-3,4-dihydro-2H-1,4-benzoxazin-6-ylmethylene]-2-thioxo-thiazolidin-4-one] | 245
COC(=O)c1ccc(OC(=O)N2CCOc3ccc(C=C4SC(=S)NC4=O)cc32)cc1 [Example 50, 6-(4-Oxo-2-thioxo-thiazolidin-5-ylidenemethyl)-2,3-dihydro-1,4-benzoxazine-4-carboxylic acid 4-methoxycarbonyl-phenyl ester] | 7
O=C1NC(=S)SC1=Cc1ccc2c(c1)N(C(=O)c1cc(Cl)sc1Cl)CCO2 [Example 51, 5-[4-(2,5-Dichloro-thiophene-3-carbonyl)-3,4-dihydro-2H-1,4-benzoxazin-6-ylmethylene]-2-thioxo-thiazolidin-4-one] | 860
Cc1cc(C(=O)N2CCOc3ccc(C=C4SC(=S)NC4=O)cc32)no1 [Example 52, 5-[4-(5-Methyl-isoxazole-3-carbonyl)-3,4-dihydro-2H-1,4-benzoxazin-6-ylmethylene]-2-thioxo-thiazolidin-4-one] | 115
O=C1NC(=S)SC1=Cc1ccc2c(c1)N(C(=O)c1sccc1Cl)CCO2 [Example 53, 5-[4-(3-Chloro-thiophene-2-carbonyl)-3,4-dihydro-2H-1,4-benzoxazin-6-ylmethylene]-2-thioxo-thiazolidin-4-one] | 265
O=C1NC(=S)SC1=Cc1ccc2c(c1)N(C(=O)c1ccccn1)CCO2 [Example 54, 5-[4-(Pyridine-2-carbonyl)-3,4-dihydro-2H-1,4-benzoxazin-6-ylmethylene]-2-thioxo-thiazolidin-4-one] | 445
O=C1NC(=S)SC1=Cc1ccc2c(c1)N(C(=O)Nc1cccc(C(F)(F)F)c1)CCO2 [Example 55, 6-(4-Oxo-2-thioxo-thiazolidin-5-ylidenemethyl)-2,3-dihydro-1,4-benzoxazine-4-carboxylic acid (3-trifluoromethyl-phenyl)-amide] | 5
O=C1NC(=S)SC1=Cc1ccc2c(c1)N(C(=O)Nc1ccccc1OC(F)(F)F)CCO2 [Example 56, 6-(4-Oxo-2-thioxo-thiazolidin-5-ylidenemethyl)-2,3-dihydro-1,4-benzoxazine-4-carboxylic acid (2-trifluoromethoxy-phenyl)-amide] | 225
Cc1ccc(NC(=O)N2CCOc3ccc(C=C4SC(=S)NC4=O)cc32)cc1 [Example 57, 6-(4-Oxo-2-thioxo-thiazolidin-5-ylidenemethyl)-2,3-dihydro-1,4-benzoxazine-4-carboxylic acid p-tolylamide] | 95
O=C1NC(=S)SC1=Cc1ccc2c(c1)N(C(=O)Nc1ccccc1)CCO2 [Example 58, 6-(4-Oxo-2-thioxo-thiazolidin-5-ylidenemethyl)-2,3-dihydro-1,4-benzoxazine-4-carboxylic acid phenylamide] | 32
COc1cccc(NC(=O)N2CCOc3ccc(C=C4SC(=S)NC4=O)cc32)c1 [Example 59, 6-(4-Oxo-2-thioxo-thiazolidin-5-ylidenemethyl)-2,3-dihydro-1,4-benzoxazine-4-carboxylic acid (3-methoxy-phenyl)-amide] | 125
O=C1NC(=S)SC1=Cc1ccc2c(c1)N(C(=O)c1ccc3nonc3c1)CCO2 [Example 61, 5-[4-(Benzofurazan-5-carbonyl)-3,4-dihydro-2H-1,4-benzoxazin-6-ylmethylene]-2-thioxo-thiazolidin-4-one] | 560

Other lines, results leading:

IC50 [nM] | Structure (SMILES)
4000 | CCCCCCCCNC(=O)N1CCOc2ccc(C=C3SC(=S)NC3=O)cc21 [Example 62, 6-(4-Oxo-2-thioxo-thiazolidin-5-ylidenemethyl)-2,3-dihydro-1,4-benzoxazine-4-carboxylic acid octylamide]
145 | O=C1NC(=S)SC1=Cc1ccc2c(c1)N(C(=O)c1cc(Cl)cc(Cl)c1)CCO2 [Example 63, 5-[4-(3,5-Dichloro-benzoyl)-3,4-dihydro-2H-1,4-benzoxazin-6-ylmethylene]-2-thioxo-thiazolidin-4-one]
4000 | O=C1NC(=S)SC1=Cc1ccc2c(c1)N(C(=O)NCCc1cccs1)CCO2 [Example 64, 6-(4-Oxo-2-thioxo-thiazolidin-5-ylidenemethyl)-2,3-!dihydro-1,4-benzoxazine-4-carboxylic acid (2-thiophen-2-yl-ethyl)-amide]
17 | O=C1NC(=S)SC1=Cc1ccc2c(c1)N(C(=O)NCCc1ccccc1)CCO2 [Example 65, 6-(4-Oxo-2-thioxo-thiazolidin-5-ylidenemethyl)-2,3-dihydro-1,4-benzoxazine-4-carboxylic acid phenethyl-amide]
80 | O=C1NC(=S)SC1=Cc1ccc2c(c1)N(C(=O)Nc1ccc(Oc3ccccc3)cc1)CCO2 [Example 66, 6-(4-Oxo-2-thioxo-thiazolidin-5-ylidenemethyl)-2,3-dihydro-1,4-benzoxazine-4-carboxylic acid (4-phenoxy-phenyl)-amide]
39 | COc1cc(NC(=O)N2CCOc3ccc(C=C4SC(=S)NC4=O)cc32)cc(OC)c1 [Example 67, 6-(4-Oxo-2-thioxo-thiazolidin-5-ylidenemethyl)-2,3-dihydro-1,4-benzoxazine-4-carboxylic acid (3,5-dimethoxy-phenyl)-amide]
8 | O=C1NC(=S)SC1=Cc1ccc2c(c1)N(C(=O)NC1CCCC1)CCO2 [Example 68, 6-(4-Oxo-2-thioxo-thiazolidin-5-ylidenemethyl)-2,3-dihydro-1,4-benzoxazine-4-carboxylic acid cyclopentylamide]
6 | O=C1NC(=S)SC1=Cc1ccc2c(c1)N(C(=O)Oc1cccc3ccccc13)CCO2 [Example 69, 6-(4-Oxo-2-thioxo-thiazolidin-5-ylidenemethyl)-2,3-dihydro-1,4-benzoxazine-4-carboxylic acid naphthalen-1-yl ester]
